One test concerns the target T1, SHP2 (Homo sapiens, UniProt Q06124).
T1 construct: Homogeneous Full Length SHP-2 Assay Kit (purchased from BPS Bioscience); purchased BPS Bioscience
T1 sequence (Q06124 1-593): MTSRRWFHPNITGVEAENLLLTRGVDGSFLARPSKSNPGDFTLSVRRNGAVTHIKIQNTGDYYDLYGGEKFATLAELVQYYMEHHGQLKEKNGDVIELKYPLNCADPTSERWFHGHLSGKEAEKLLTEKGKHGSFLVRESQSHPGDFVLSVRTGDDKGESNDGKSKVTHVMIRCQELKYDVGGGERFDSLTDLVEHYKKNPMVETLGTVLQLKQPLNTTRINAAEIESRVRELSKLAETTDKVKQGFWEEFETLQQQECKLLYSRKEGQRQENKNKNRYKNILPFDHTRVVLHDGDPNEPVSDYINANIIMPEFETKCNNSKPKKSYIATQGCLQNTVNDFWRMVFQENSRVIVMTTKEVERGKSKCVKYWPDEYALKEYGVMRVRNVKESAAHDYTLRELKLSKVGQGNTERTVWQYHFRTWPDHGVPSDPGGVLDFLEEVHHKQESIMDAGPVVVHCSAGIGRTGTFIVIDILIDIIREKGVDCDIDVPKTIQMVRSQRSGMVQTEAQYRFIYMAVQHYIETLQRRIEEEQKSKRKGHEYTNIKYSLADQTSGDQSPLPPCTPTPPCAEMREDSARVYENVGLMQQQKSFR
Briefly: SHP2 in-vitro enzymology experiment (Homogeneous Full Length SHP-2 Assay Kit, DiFMUP substrate). The settings on record: 60 min pre-incubation, 30 min reaction at 25° C. In kind it is biochemical. The method, then: Experimental materials: Homogeneous Full Length SHP-2 Assay Kit (purchased from BPS Bioscience) and NIVO multimode microplate reader.
Preparation of 1× buffer (ready-to-use): 5× buffer was diluted with deionized water to give 1× buffer, which was then placed on ice for later use.
Each test compound was diluted with 100% DMSO to 100 μM as the first concentration, and then diluted in a 4-fold gradient to the 8th concentration (i.e., from 100 μM to 6.1 nM) using a multi-channel pipette. Each gradient of the test compound was diluted with 1× buffer to prepare a working solution with 10% DMSO. The resulting solution was then added to the corresponding wells of a plate at 5 μL/well, with duplicate wells set up. The plate was then centrifuged at 1000 rpm for 1 min.
18 μL of a prepared reaction mixed solution (containing 12.25 μL of deionized water, 5 μL of 5× buffer; 0.25 μL of SHP-2 substrate polypeptide (100 μM), and 0.5 μL of DTT (250 mM)) was added to each well. The plate was then centrifuged at 1000 rpm for 1 min.
An SHP-2 enzyme was diluted to 0.1 ng/μL with 1× buffer. The resulting solution was added to the corresponding wells at 2 μL/well, and 2 μL of 1× buffer and […] were added to each negative control well. This step was performed on ice. The reaction system was then incubated at 25° C. for 60 min for compound pre-incubation.
After the compound pre-incubation was completed, 25 μL of a substrate working solution (containing 19.45 μL of deionized water, 5 μL of 5× buffer; 0.5 μL of DTT (250 mM), and 0.05 μL of SHP-2 Substrate (DiFMUP) (10 mM)) was added to each well, and the reaction system was allowed to react at 25° C. for 30 min. At that time, the final concentration gradient of the compound ranged from 1 μM to 0.061 nM. After the reaction was completed, the fluorescence values were read using the NIVO multimode microplate reader, with an excitation wavelength of 360 nm and an emission wavelength of 460 nm.
Detection of compound background reading values: Each gradient of the test compound diluted with 100% DMSO was added to a new compound plate at 5 μL/well, and then 1× buffer was added at 45 μL/well to achieve a 10-fold dilution to prepare a working solution with 10% DMSO. Next, the compound working solution was added to the detection plate at 5 μL/well, and then 1× buffer was added at 45 μL/well to achieve another 10-fold dilution, bringing the final concentration of DMSO to 1%. The plate was then centrifuged at 1000 rpm for 1 min. The fluorescence values were read using the multimode microplate reader, with an excitation wavelength of 360 nm and an emission wavelength of 460 nm.
The original data were converted to inhibition rates and the IC50 values were obtained by curve fitting using a four-parameter method.

The subject of test [1] is ERK phosphorylation in H358 cells. Briefly: Inhibitory activity against ERK phosphorylation in H358 cells (HTRF Phospho-ERK1/2 kit). In kind it is cell-based. The settings on record: Homo sapiens, NCI-H358; starved H358 cells, 1 h compound incubation; read-out: H358 cell ERK phosphorylation IC50. As to the method: H358 cells purchased from Nanjing Cobioer Biosciences Co., Ltd., 1640 medium purchased from Biological industries, fetal bovine serum purchased from Biosera, and Advanced Phospho-ERK1/2 (THR202/TYR204) KIT purchased from Cisbio.
• 1. H358 cells were plated in a transparent 96-well cell culture plate, with 80 μL of cell suspension per well, each well containing 10000 H358 cells. The cell plate was incubated in a CO2 incubator at 37° C. overnight. • 2. The cell supernatant was discarded, and a starvation medium (1640+0.02% fetal bovine serum+1% […]) was added at 80 μL/well. The cell plate was then incubated in a CO2 incubator for cell starvation treatment overnight; • 3. Each test compound was diluted with 100% DMSO to 4 mM as the first concentration, and then diluted in a 5-fold gradient to the 8th concentration (i.e., from 4 mM to […]) using a pipette. 1 μL of the compound was then added to 79 μL of cell starvation medium. The mixture was mixed well, and then the compound solution was added to the corresponding wells of the cell plate at 20 μL/well. The cell plate was then put back to the CO2 incubator for incubation for another 1 h. At that time, the concentration of the compound ranged from 10 μM to 0.0256 nM, with the concentration of DMSO being 0.25%. • 4. After the incubation was completed, the cell supernatant was discarded, and a cell lysis buffer was added at 50 μL/well. The plate was then incubated with shaking at room temperature for 30 min. 5. The Phospho-ERK1/2 Eu Cryptate antibody and Phospho-ERK1/2 d2 antibody were diluted in a 20-fold gradient with the Detection buffer. • 6. 16 μL of the cell lysate supernatant from each well was transferred to a new 384-well white microplate, and then 2 μL of the Phospho-ERK1/2 Eu Cryptate antibody dilution and 2 μL of the Phospho-ERK1/2 d2 antibody dilution were added to each well. The mixture was incubated at room temperature for 4 h. • 7. After the incubation was completed, HTRF values were read using a multimode microplate reader, with an excitation wavelength of 320 nm and emission wavelengths of 615 nm and 665 nm.
The original data were converted to inhibition rates and then the IC50 values were obtained by curve fitting using a four-parameter method.
(TR-FRET usually uses a lanthanide donor and a delayed reading to cut background.)

Test [2] deals with MiaPaCa-2 cells (MIAPACA2_PANCREAS). Briefly: Anti-proliferation experiment on tumor cells with KRAS mutations, MiaPaCa-2 (3D CellTiter-Glo). In kind it is cell-based. The settings on record: Homo sapiens, MIA PaCa-2, 72 h, 3 days incubation with compound, ultra-low attachment plate. An excerpt:
(§1) Cell culture medium, penicillin/streptomycin antibiotics purchased from Wisent, and fetal bovine serum purchased from Biosera; 3D CellTiter-Glo (chemiluminescence detection reagent for cell viability) reagent purchased from Promega; Cell lines purchased from Nanjing Cobioer Biosciences Co., Ltd. and Wuhan Procell Life Science & Technology Co., Ltd; and Envision multimode microplate reader (PerkinElmer).
(§2) Different types of tumor cells were each seeded in an ultra-low attachment 96-well U-bottom plate, with 80 μL of cell suspension per well. The cell plate was incubated in a CO2 incubator overnight.
(§3) Each test compound was diluted in a 5-fold gradient to the 9th concentration (i.e., from 2 mM to 5.12 nM or from 200 μM to 0.512 nM) using a multi-channel pipette, with duplicate wells set up. 78 μL of medium was added to an intermediate plate, and the serially diluted compound was transferred to the corresponding wells of the intermediate plate at 2 μL/well. The mixture was mixed well and then transferred to the cell plate at 20 µL/well. The concentration of the compound transferred to the cell plate ranged from 10 μM to 0.0256 nM or from 1 μM to 0.00256 nM. The cell plate was then incubated in a CO2 incubator for 3-6 days.
(§4) The chemiluminescence detection reagent for cell viability was added to the cell plate at 100 μL/well, and the luminescence signals were stabilized by incubation for 10 min at room temperature. Readings were taken using the multimode microplate reader.
(§5) The original data were converted to inhibition rates and then the IC50 values were obtained by curve fitting using a four-parameter method (obtained from the “log(inhibitor) vs. response—Variable slope” model in GraphPad Prism). Table 2 illustrates the inhibitory activity of the compounds disclosed herein against the proliferation of different types of tumor cells.
In general terms: ATP-based viability assays read luminescence as a measure of living cells.

Test [3] deals with H358 cells (NCIH358_LUNG). Briefly: Anti-proliferation experiment on tumor cells with KRAS mutations, H358 (3D CellTiter-Glo). In kind it is cell-based. The settings on record: Homo sapiens, NCI-H358, 120 h, 5 days incubation with compound, ultra-low attachment plate.
From the text: as §1, §2, §3, §4, §5

We go through 4 molecules from patent US20240409543A1, “PYRROLOPYRAZOLE SPIRO COMPOUND” (CHIA TAI TIANQING PHARMACEUTICAL GROUP CO., LTD., priority 2021, published 2024).

One may read the IC50 as the point on the concentration scale where inhibition reaches its midpoint.

Consider `Cc1nc(N2CCC3(CC2)Cn2nccc2C3N)c(CO)nc1Sc1cccc(Cl)c1Cl` (stereo not drawn) [Compound 3], for which the IC50 on SHP2 is 2.28 nM; in test [1] it was 55.6 nM; in test [2], 35 nM; in test [3], 62.1 nM.
For the molecule `Cc1nc(N2CCC3(CC2)Cn2nccc2C3N)c(C(N)=O)nc1Sc1ccnc(N)c1Cl` (stereo not drawn) [Compound 5], the IC50 on SHP2 was 3.24 nM; in test [1], 45.3 nM; in test [2], 48.5 nM; in test [3] it was 43.1 nM.
In turn, `CONc1nccc(Sc2nc(CO)c(N3CCC4(CC3)Cn3nccc3C4N)nc2C)c1Cl` (stereo not drawn) [Compound 8] gave an IC50 on SHP2 of 3.99 nM.
On to `Cc1nc(Sc2ccnc(N)c2Cl)cnc1N1CCC2(CC1)Cn1nccc1C2N` (stereo not drawn) [Compound 10], for which the IC50 on SHP2 amounted to 1.09 nM; in test [2] it was 19.3 nM; in test [3] it was 38.9 nM.
